Assays:
[1] = tested on: Canadian thistle (CIRAR, Cirsium arvense); assay: Greenhouse postemergence herbicidal effect; format: in vivo
Method: (§1) The plants were grown for 7-36 days (d) in a greenhouse with an approximate 14-hour (h) photo-period which was maintained at about 23° C. during the day and 22° C. during the night. Nutrients and water were added on a regular basis and supplemental lighting was provided with overhead metal halide 1000-Watt lamps as necessary. The plants were employed for testing when they reached the second or third true leaf stage.
(§2) The emulsifiable concentrates also included a safener, cloquintocet-mexyl, at 120 grams active ingredient per liter (g ai/L), unless otherwise noted below.
(§3) Control plants were sprayed in the same manner with the solvent blank. All pyridine carboxylate herbicide (component a) application rates are given as “g ae/ha” and all ALS inhibitor (component b) application rates are given as “g ai/ha.”
(§4) The treated plants and control plants were placed in a greenhouse as described above and watered by sub-irrigation to prevent wash-off of the test compounds. After 20-22 d, the condition of the test plants as compared with that of the control plants was determined visually and scored on a scale of 0 to 100 percent where 0 corresponds to no injury and 100 corresponds to complete kill.

[2] = tested on: spring rape (BRSNN, Brassica napus); assay: Greenhouse postemergence herbicidal effect; format: in vivo; settings: Bispyribac 90 g/ha
Method: as §1, §2, §3, §4

spring wheat (TRZAS) = format: in vivo, Triticum aestivum; settings: Bispyribac 90 g/ha
Method: as §1, §2, §3, §4

[3] = tested on: common sunflower (HELAN, Helianthus annuus); assay: Greenhouse postemergence herbicidal effect; format: in vivo
Excerpt: (§5) Seeds of the desired test plant species were planted in a 90:10% v/v (volume/volume) mixture of PRO-MIX® BX (Premier Tech Horticulture, Quakertown, PA, USA) and PROFILE® GREENS GRADE™ (Profile Products LLC, Buffalo Grove, IL, USA) planting mixture, which typically has a pH of 5.2 to 6.2 and an organic matter content of at least 50 percent, in plastic pots with a surface area of 103.2 square centimeters (cm^2). In some aspects, to ensure good germination and healthy plants, a fungicide treatment and/or other chemical or physical treatment was applied. The plants were grown for 7-36 days (d) in a greenhouse with an approximate 14-hour (h) photo-period which was maintained at about 23° C. during the day and 22° C. during the night. Nutrients and water were added on a regular basis and supplemental lighting was provided with overhead metal halide 1000-Watt lamps as necessary. The plants were employed for testing when they reached the second or third true leaf stage.
(§6) Emulsifiable concentrates of each of each pyridine carboxylate herbicide (Compound A or Compound B) were prepared at 100 grams acid equivalent per liter (g ae/L). The emulsifiable concentrates also included a safener, cloquintocet-mexyl, at 120 grams active ingredient per liter (g ai/L), unless otherwise noted below. An aliquot of each emulsifiable concentrate was placed in a 25 mL glass vial and diluted with an aqueous mixture of 1.25% (v/v) ACTIROB® B esterified rapeseed oil (Bayer Crop Science, Research Triangle Park, NC, USA) or MSO® Concentrate with LECI-TECH® methylated soybean oil (Loveland Products, Loveland, CO, USA) to obtain concentrated stock solutions at the highest application rate for each herbicide, based upon a 12 milliliter (mL) application volume at a rate of 187 liters per hectare (L/ha). The concentrated stock solutions were further diluted with an aqueous mixture of 1.25% v/v ACTIROB® B or MSO® Concentrate with LECI-TECH® to obtain stock solutions at reduced application rates for each herbicide. Spray solutions of the herbicide combinations (Compound A or Compound B plus ALS herbicide) were prepared by adding weighed amounts or aliquots of the ALS herbicides to the stock solutions of Compound A or Compound B to form 12-mL spray solutions in two- or three-way combinations.
(§7) The spray solutions were applied to the plant material with an overhead Mandel track sprayer equipped with 8002E nozzles calibrated to deliver 187 L/ha over an application area of 0.503 square meters (m^2) at a spray height of 18 inches (43 centimeters (cm)) above the average plant canopy. Control plants were sprayed in the same manner with the solvent blank. All pyridine carboxylate herbicide (component a) application rates are given as “g ae/ha” and all ALS inhibitor (component b) application rates are given as “g ai/ha.”
as §4

[4] = tested on: grain sorghum (SORVU, Sorghum vulgare); assay: Greenhouse postemergence herbicidal effect; format: in vivo; settings: Bispyribac 90 g/ha
Excerpt: as §5, §6, §7, §4

[5] = tested on: ivyleaf morningglory (IPOHE, Ipomoea hederacea); assay: Greenhouse postemergence herbicidal effect; format: in vivo
Excerpt: as §5, §6, §7, §4

[6] = tested on: nutsedge (CYPES, Cyperus esculentus); assay: Greenhouse postemergence herbicidal effect; format: in vivo; settings: Bispyribac 90 g/ha
Excerpt: as §5, §6, §7, §4

[7] = tested on: poinsettia (EPHHL, Euphorbia heterophylla); assay: Greenhouse postemergence herbicidal effect; format: in vivo; settings: Bispyribac 90 g/ha
Excerpt: as §5, §6, §7, §4

[8] = tested on: chickweed (STEME, Stellaria media); assay: Greenhouse postemergence herbicidal effect; format: in vivo; settings: 8.75 g/ha
Method: as §1, §2, §3, §4

[9] = tested on: pigweed (AMARE, Amaranthus retroflexus); assay: Greenhouse postemergence herbicidal effect; format: in vivo
Method: as §1, §2, §3, §4

[10] = tested on: wild buckwheat (POLCO, Polygonum convolvulus); assay: Greenhouse postemergence herbicidal effect; format: in vivo
Method: as §1, §2, §3, §4

[11] = tested on: wild chamomile (MATCH, Matricaria chamomilla); assay: Greenhouse postemergence herbicidal effect; format: in vivo; settings: Halosulfuron 8.75 g/ha
Method: as §1, §2, §3, §4

[12] = tested on: wild mustard (SINAR, Sinapis arvensis); assay: Greenhouse postemergence herbicidal effect; format: in vivo; settings: Halosulfuron 8.75 g/ha
Method: as §1, §2, §3, §4

[13] = tested on: wild pansy (VIOTR, Viola tricolor); assay: Greenhouse postemergence herbicidal effect; format: in vivo; settings: 8.75 g/ha
Method: as §1, §2, §3, §4

[14] = tested on: winter rape (BRSNW, Brassica napus); assay: Greenhouse postemergence herbicidal effect; format: in vivo; settings: Halosulfuron 8.75 g/ha
Method: as §1, §2, §3, §4

[15] = tested on: common lambsquarters (CHEAL, Chenopodium album L.); assay: Greenhouse postemergence herbicidal effect; format: in vivo
Method: as §5, with “In some aspects, to ensure good germination and healthy plants, a fungicide treatment and/or other chemical or physical treatment was applied.” left out
as §6, §7, §4

[16] = tested on: kochia (KCHSC, Kochia scoparia); assay: Greenhouse postemergence herbicidal effect; format: in vivo
Method: as §5, with “In some aspects, to ensure good germination and healthy plants, a fungicide treatment and/or other chemical or physical treatment was applied.” left out
as §6, §7, §4

[17] = tested on: broad-leaf dock (RUMOB, Rumex obtusifolius); assay: Greenhouse postemergence herbicidal effect; format: in vivo; settings: 8.75 g/ha
Excerpt: as §5, §6, §7, §4

[18] = tested on: soybean (GLXMA, Glycine max); assay: Greenhouse postemergence herbicidal effect; format: in vivo; settings: 8.75 g/ha
Excerpt: as §5, §6, §7, §4

[19] = tested on: velvetleaf (ABUTH, Abutilon theophrasti); assay: Greenhouse postemergence herbicidal effect; format: in vivo; settings: 8.75 g/ha
Excerpt: as §5, §6, §7, §4

## COc1cc(OC)nc(Oc2cccc(Oc3nc(OC)cc(OC)n3)c2C(=O)O)n1 [Bispyribac, bispyribac]
[1]; Bispyribac 90 g/ha
  % visual injury: 90%
[2]
  % visual injury: 88%
Spring wheat (TRZAS)
  % visual injury: 18%
[3]; Bispyribac 90 g/ha
  % visual injury: 97%
[4]
  % visual injury: 73%
[5]; Bispyribac 90 g/ha
  % visual injury: 70%
[6]
  % visual injury: 20%
[7]
  % visual injury: 95%

## halosulfuron
[1]; 8.75 g/ha
  % visual injury, Obs: 10%
[1]; Halosulfuron 8.75 g/ha
  % visual injury: 40%
[8]
  % visual injury, Obs: 0%
[9]; 8.75 g/ha
  % visual injury, Obs: 40%
[9]; Halosulfuron 8.75 g/ha
  % visual injury: 95%
[10]; 8.75 g/ha
  % visual injury, Obs: 5%
[10]; Halosulfuron 8.75 g/ha
  % visual injury: 63%
[11]
  % visual injury: 78%
[12]
  % visual injury: 95%
[13]
  % visual injury, Obs: 15%
[14]
  % visual injury: 88%
[15]; 8.75 g/ha
  % visual injury, Obs: 0%
[15]; Halosulfuron 8.75 g/ha
  % visual injury: 10%
[16]; 8.75 g/ha
  % visual injury, Obs: 0%
[16]; Halosulfuron 8.75 g/ha
  % visual injury: 15%
[17]
  % visual injury, Obs: 0%
[3]; 8.75 g/ha
  % visual injury, Obs: 100%
[5]; 8.75 g/ha
  % visual injury, Obs: 0%
[18]
  % visual injury, Obs: 78%
[19]
  % visual injury, Obs: 95%
